Data on 11 compounds can be found in patent US11872262B2, “Means and methods for treating bacterial infections” (VIB VZW, priority 2017, dated 2024).

Each structure is given as a SMILES string. Residues, ends and D or L forms follow the SMILES beside them.

The subject of the assay is E. coli O157:H7. The assay is classed as cell-based, Escherichia coli. Particulars: screening-stage peptides tested at 1, 6, 12 and 25 μg/mL. From the text: In the present invention we used the statistical thermodynamics algorithm TANGO to identify aggregation prone regions (APR) in the proteome of E. coli strain O157:H7. This yielded 3535 sequences of at least 6 amino acids in length and a TANGO score of at least 20%. In order to generate efficient aggregation seeds, we employed a previously devised tandem repeat design ^19, 21, in which the APRs are repeated once and separated by a linker. Given the length limitation on solid phase peptide synthesis with regard to yield and purity, we focused on the 1542 APRs with a length of 7 amino acids. In order to maximize the potential of these peptides to induce aggregation in E. coli, we ranked the APRs by their frequency of occurrence throughout the E. coli proteome, allowing a single amino acid mismatch, and selected the first 75 most frequently occurring sequences from this list (Table 4). In the design pattern, and in order to increase the colloidal stability of these aggregating peptides, the APRs are flanked by aggregation gatekeepers, a class of residues that was previously shown to reduce aggregation kinetics^22-24. […] To generate the tandem we used a single proline residue as a linker between the gatekeeper-flanked APRs. In addition to the 75 peptides generated in this fashion, we added 2 variants of each of the first 25 peptides in the list by randomly mutating one residue in the first APR repeat to arginine to further modulate the aggregation propensity of the peptides (Table 4). All the peptides were generated using solid phase synthesis at 200 nmole scale and dissolved in DMSO to a theoretical stock concentration of 2 mM (assuming 100% synthesis efficiency). Peptide activity on the growth of E. coli O157:H7 was measured at dilutions of the peptide corresponding to concentrations of 1, 6, 12 and 25 μg/mL. […] The Matthews Correlations Coefficient (MCC) with the measured activity was 0.1 at 12 μg/mL and 0.24 at 25 μg/mL.
In the case of `CC(C)C[C@H](NC(=O)[C@H](C)NC(=O)[C@H](CC(C)C)NC(=O)[C@@H](NC(=O)[C@H](CCC(N)=O)NC(=O)[C@H](C)NC(=O)[C@H](CCCNC(=N)N)NC(=O)[C@@H]1CCCN1C(=O)[C@H](CCCNC(=N)N)NC(=O)[C@H](CCCNC(=N)N)NC(=O)[C@H](CC(C)C)NC(=O)[C@H](CC(C)C)NC(=O)[C@H](C)NC(=O)[C@H](CC(C)C)NC(=O)[C@@H](NC(=O)[C@H](CCC(N)=O)NC(=O)[C@H](C)NC(=O)[C@@H](N)CCCNC(=N)N)C(C)C)C(C)C)C(=O)N[C@@H](CC(C)C)C(=O)N[C@@H](CCCNC(=N)N)C(=O)N[C@@H](CCCNC(=N)N)C(=O)O` [Peptide P40] (H-RAQVLALLRRPRAQVLALLRR-OH; N-terminus and C-terminus assumed), the “E. coli O157 (apparent MIC in screen)” value amounted to 25 µg/mL. Turning to `CC(C)C[C@H](NC(=O)[C@H](CC(N)=O)NC(=O)[C@H](CC(C)C)NC(=O)[C@H](CC(C)C)NC(=O)[C@@H](NC(=O)[C@H](CC(C)C)NC(=O)[C@H](CC(C)C)NC(=O)[C@H](CCCNC(=N)N)NC(=O)[C@@H]1CCCN1C(=O)[C@H](CCCNC(=N)N)NC(=O)[C@H](CCCNC(=N)N)NC(=O)[C@H](CC(C)C)NC(=O)[C@H](CC(N)=O)NC(=O)[C@H](CC(C)C)NC(=O)[C@H](CC(C)C)NC(=O)[C@@H](NC(=O)[C@H](CC(C)C)NC(=O)[C@H](CC(C)C)NC(=O)[C@@H](N)CCCNC(=N)N)[C@@H](C)O)[C@@H](C)O)C(=O)N[C@@H](CCCNC(=N)N)C(=O)N[C@@H](CCCNC(=N)N)C(=O)O` [Peptide P49] (H-RLLTLLNLRRPRLLTLLNLRR-OH; N-terminus and C-terminus assumed), the “E. coli O157 (apparent MIC in screen)” value is 12 µg/mL. As for `CC(C)C[C@H](NC(=O)CNC(=O)[C@@H](NC(=O)[C@H](CC(C)C)NC(=O)[C@H](CCCNC(=N)N)NC(=O)[C@@H]1CCCN1C(=O)[C@H](CCCNC(=N)N)NC(=O)[C@H](CCCNC(=N)N)NC(=O)CNC(=O)[C@H](CC(C)C)NC(=O)[C@@H](NC(=O)[C@H](CC(C)C)NC(=O)CNC(=O)[C@@H](NC(=O)[C@H](CC(C)C)NC(=O)[C@@H](N)CCCNC(=N)N)C(C)C)C(C)C)C(C)C)C(=O)N[C@H](C(=O)N[C@@H](CC(C)C)C(=O)NCC(=O)N[C@@H](CCCNC(=N)N)C(=O)N[C@@H](CCCNC(=N)N)C(=O)O)C(C)C` [Peptide P50] (H-RLVGLVLGRRPRLVGLVLGRR-OH; N-terminus and C-terminus assumed), the figure is 6 µg/mL; as for `CC(C)C[C@H](NC(=O)[C@H](C)NC(=O)[C@H](CCCNC(=N)N)NC(=O)[C@@H]1CCCN1C(=O)[C@H](CCCNC(=N)N)NC(=O)[C@H](CCCNC(=N)N)NC(=O)[C@H](CC(C)C)NC(=O)[C@H](CC(C)C)NC(=O)[C@H](CC(C)C)NC(=O)[C@H](CO)NC(=O)[C@@H](NC(=O)[C@H](CC(C)C)NC(=O)[C@H](C)NC(=O)[C@@H](N)CCCNC(=N)N)C(C)C)C(=O)N[C@H](C(=O)N[C@@H](CO)C(=O)N[C@@H](CC(C)C)C(=O)N[C@@H](CC(C)C)C(=O)N[C@@H](CC(C)C)C(=O)N[C@@H](CCCNC(=N)N)C(=O)N[C@@H](CCCNC(=N)N)C(=O)O)C(C)C` [Peptide P58] (H-RALVSLLLRRPRALVSLLLRR-OH; N-terminus and C-terminus assumed), 12 µg/mL; as for `CC(C)C[C@H](NC(=O)[C@H](CCC(N)=O)NC(=O)[C@H](CCCNC(=N)N)NC(=O)[C@@H]1CCCN1C(=O)[C@H](CCCNC(=N)N)NC(=O)[C@H](CCCNC(=N)N)NC(=O)[C@H](CC(C)C)NC(=O)[C@H](CC(C)C)NC(=O)[C@@H](NC(=O)[C@H](CC(C)C)NC(=O)[C@H](CC(C)C)NC(=O)[C@H](CC(C)C)NC(=O)[C@H](CCC(N)=O)NC(=O)[C@@H](N)CCCNC(=N)N)[C@@H](C)O)C(=O)N[C@@H](CC(C)C)C(=O)N[C@@H](CC(C)C)C(=O)N[C@H](C(=O)N[C@@H](CC(C)C)C(=O)N[C@@H](CC(C)C)C(=O)N[C@@H](CCCNC(=N)N)C(=O)N[C@@H](CCCNC(=N)N)C(=O)O)[C@@H](C)O` [Peptide P72] (H-RQLLLTLLRRPRQLLLTLLRR-OH; N-terminus and C-terminus assumed), 25 µg/mL. Consider `CC(C)C[C@H](NC(=O)[C@H](CC(C)C)NC(=O)[C@H](CC(C)C)NC(=O)[C@H](CCCNC(=N)N)NC(=O)[C@@H]1CCCN1C(=O)[C@H](CCCNC(=N)N)NC(=O)[C@H](CCCNC(=N)N)NC(=O)[C@@H](NC(=O)[C@H](CC(C)C)NC(=O)[C@H](CC(C)C)NC(=O)[C@H](CO)NC(=O)[C@H](CC(C)C)NC(=O)[C@H](CCCNC(=N)N)NC(=O)[C@H](CC(C)C)NC(=O)[C@@H](N)CCCNC(=N)N)C(C)C)C(=O)N[C@@H](CO)C(=O)N[C@@H](CC(C)C)C(=O)N[C@@H](CC(C)C)C(=O)N[C@H](C(=O)N[C@@H](CCCNC(=N)N)C(=O)N[C@@H](CCCNC(=N)N)C(=O)O)C(C)C` [Peptide P76] (H-RLRLSLLVRRPRLLLSLLVRR-OH; N-terminus and C-terminus assumed), for which the “E. coli O157 (apparent MIC in screen)” value came to 12 µg/mL. As for `CC(C)C[C@H](NC(=O)[C@H](C)NC(=O)[C@H](CC(C)C)NC(=O)[C@H](CCCNC(=N)N)NC(=O)[C@@H]1CCCN1C(=O)[C@H](CCCNC(=N)N)NC(=O)[C@H](CCCNC(=N)N)NC(=O)[C@H](CC(C)C)NC(=O)[C@H](CC(C)C)NC(=O)[C@H](CC(C)C)NC(=O)[C@H](CCCNC(=N)N)NC(=O)[C@H](CC(C)C)NC(=O)[C@H](C)NC(=O)[C@H](CC(C)C)NC(=O)[C@@H](N)CCCNC(=N)N)C(=O)N[C@@H](C)C(=O)N[C@@H](CC(C)C)C(=O)N[C@@H](CC(C)C)C(=O)N[C@@H](CC(C)C)C(=O)N[C@@H](CCCNC(=N)N)C(=O)N[C@@H](CCCNC(=N)N)C(=O)O` [Peptide P79] (H-RLALRLLLRRPRLALALLLRR-OH; N-terminus and C-terminus assumed), the “E. coli O157 (apparent MIC in screen)” value was 12 µg/mL.

Take `CC(C)C[C@H](NC(=O)[C@H](C)NC(=O)[C@H](CCCNC(=N)N)NC(=O)[C@@H]1CCCN1C(=O)[C@H](CCCNC(=N)N)NC(=O)[C@H](CCCNC(=N)N)NC(=O)[C@H](CC(C)C)NC(=O)[C@H](CC(C)C)NC(=O)[C@@H](NC(=O)[C@@H](NC(=O)[C@H](CCCNC(=N)N)NC(=O)[C@H](CC(C)C)NC(=O)[C@H](C)NC(=O)[C@@H](N)CCCNC(=N)N)[C@@H](C)O)[C@@H](C)O)C(=O)N[C@@H](CC(C)C)C(=O)N[C@H](C(=O)N[C@H](C(=O)N[C@@H](CC(C)C)C(=O)N[C@@H](CC(C)C)C(=O)N[C@@H](CCCNC(=N)N)C(=O)N[C@@H](CCCNC(=N)N)C(=O)O)[C@@H](C)O)[C@@H](C)O` [Peptide P80] (H-RALRTTLLRRPRALLTTLLRR-OH; N-terminus and C-terminus assumed): the “E. coli O157 (apparent MIC in screen)” value came out at 25 µg/mL.

As for `CC(C)C[C@H](NC(=O)[C@H](C)NC(=O)[C@H](CCCNC(=N)N)NC(=O)[C@@H]1CCCN1C(=O)[C@H](CCCNC(=N)N)NC(=O)[C@H](CCCNC(=N)N)NC(=O)[C@H](CC(C)C)NC(=O)[C@H](CC(C)C)NC(=O)[C@H](C)NC(=O)[C@@H](NC(=O)[C@H](CCCNC(=N)N)NC(=O)[C@H](CC(C)C)NC(=O)[C@H](C)NC(=O)[C@@H](N)CCCNC(=N)N)C(C)C)C(=O)N[C@@H](C)C(=O)N[C@H](C(=O)N[C@@H](C)C(=O)N[C@@H](CC(C)C)C(=O)N[C@@H](CC(C)C)C(=O)N[C@@H](CCCNC(=N)N)C(=O)N[C@@H](CCCNC(=N)N)C(=O)O)C(C)C` [Peptide P87] (H-RALRVALLRRPRALAVALLRR-OH; N-terminus and C-terminus assumed), the “E. coli O157 (apparent MIC in screen)” value was 25 µg/mL.

Turning to `CC(C)C[C@H](NC(=O)CNC(=O)[C@H](CC(C)C)NC(=O)[C@@H](NC(=O)[C@H](C)NC(=O)[C@H](CCCNC(=N)N)NC(=O)[C@@H]1CCCN1C(=O)[C@H](CCCNC(=N)N)NC(=O)[C@H](CCCNC(=N)N)NC(=O)[C@H](C)NC(=O)[C@H](CC(C)C)NC(=O)[C@H](CC(C)C)NC(=O)CNC(=O)[C@H](CCCNC(=N)N)NC(=O)[C@@H](NC(=O)[C@H](C)NC(=O)[C@@H](N)CCCNC(=N)N)C(C)C)C(C)C)C(=O)N[C@@H](CC(C)C)C(=O)N[C@@H](C)C(=O)N[C@@H](CCCNC(=N)N)C(=O)N[C@@H](CCCNC(=N)N)C(=O)O` [Peptide P88] (H-RAVRGLLARRPRAVLGLLARR-OH; N-terminus and C-terminus assumed), the “E. coli O157 (apparent MIC in screen)” value was 25 µg/mL. With `CC(C)C[C@H](NC(=O)CNC(=O)[C@H](CCCNC(=N)N)NC(=O)[C@@H]1CCCN1C(=O)[C@H](CCCNC(=N)N)NC(=O)[C@H](CCCNC(=N)N)NC(=O)[C@H](C)NC(=O)[C@H](CC(C)C)NC(=O)[C@H](CCCNC(=N)N)NC(=O)[C@H](C)NC(=O)[C@H](CC(C)C)NC(=O)[C@H](CC(C)C)NC(=O)CNC(=O)[C@@H](N)CCCNC(=N)N)C(=O)N[C@@H](CC(C)C)C(=O)N[C@@H](C)C(=O)N[C@@H](CC(C)C)C(=O)N[C@@H](CC(C)C)C(=O)N[C@@H](C)C(=O)N[C@@H](CCCNC(=N)N)C(=O)N[C@@H](CCCNC(=N)N)C(=O)O` [Peptide P89] (H-RGLLARLARRPRGLLALLARR-OH; N-terminus and C-terminus assumed) the figure was 12 µg/mL.
